The record followed here is patent US20240287123A1 (Victoria Link Limited, priority 2021, published 2024).

Structures are written as SMILES. pEC50: −log10 of the molar value. Like-named read-outs stand apart in the source and are kept apart here. Some results are limits rather than exact numbers.

The subject of one test is EBV (Akata/Akata). In words: EBV assay: viral DNA quantification in induced Akata cells. In kind it is cell-based, Epstein-Barr virus. The note with it: for pEC50: human gammaherpesvirus 4, Akata; for activity against EBV: cell-based assay, highest concentration tested in primary assays 50 μM. Here is the method:
Akata cells were obtained from Louisiana State University, Baton Rouge, LA. The HCMV strain AD169 was obtained from the American Type Culture Collection (ATCC, Manassas, VA). Akata cells latently infected with EBV were obtained from Louisiana State University, Baton Rouge, LA.
Each experiment that evaluates the antiviral activity of compounds includes both positive and negative control compounds to ensure the performance of each assay. Concurrent assessment of cytotoxicity was also performed for each study in the same cell line and with the same compound exposure.
Assays for EBV were performed by reported methods.^37 Akata cells were induced to undergo a lytic infection with 50 μg/ml of a goat anti-human IgG antibody. Experimental compounds were diluted within plates. The cells were added and incubated for 72 h. Similar plates were initiated without virus induction/addition and used for measuring cytotoxicity by the addition of CTG. For all assays, the replication of the virus was assessed by the quantification of viral DNA. For EBV, primers 5′-[…]-3′ and 5′-CAG TTC CTC GCCTTAGGTTG-3 amplified a fragment corresponding to coordinates 96802-97234 in EBV genome (AJ507799). Compound concentrations sufficient to reduce genome copy number by 50% were calculated from experimental data as well as compound cytotoxicity.

The next test relates to HHV-6B (Z29; MOLT-3). Briefly: HHV-6B antiviral assay (Z29; MOLT-3). The class given is cell-based, human betaherpesvirus 6B. To be noted: for pEC50: Human betaherpesvirus 6B, MOLT-3, HHV-6B Z29, MOLT-3, read-out: Result for compound (EC50/UM).
Where [1] appears, read: EBV Akata/Akata, assay order Secondary, read-out: Result for compound (EC50/UM).
The mark [2] stands for this setting: read-out: Result for compound (EC50/UM), EBV Akata/Akata, assay order Primary.
Setting [3] is: read-out: Result for compound (EC50/UM), EBV Akata/Akata, assay order Secondary.

Regarding `CC(C)(C)C(=O)OCC1=C[C@@H](O)[C@H](n2ccc(N)nc2=O)O1` [drawing 69], in the test on EBV (Akata/Akata) (setting [1]), the pEC50 was 4.80.
With `CC(=O)OCC1=C[C@@H](O)[C@H](n2ccc(N)nc2=O)O1` [drawing 67], in the test with EBV (Akata/Akata) (setting [2]), the pEC50 is 5.05.
`CCC(CC)COC(=O)[C@H](C)N[P@](=O)(OCC1=C[C@@H](O)[C@H](n2ccc(N)nc2=O)O1)Oc1ccccc1` [Compound 32, 3′,4′-Didehydro-3′-deoxycytidine-5′-0-{phenyl [2-(ethyl)but-1-yloxy-L-alaninyl] }-Sp-phosphoramidate]: the “activity against EBV” value with EBV (Akata/Akata) is reported as “not active”.
As for `Nc1ccn([C@H]2CC=C(CO)O2)c(=O)n1` [drawing 72, 3′,4′-Didehydro-2′,3′-dideoxycytidine], the pEC50 in the test with EBV (Akata/Akata) (setting [2]) was 4.53.
Still for that read-out and setting: the same measure for `CCC(CC)COC(=O)[C@H](C)N[P@](=O)(OCC1=C[C@@H](O)[C@H](n2ccc(N)nc2=O)O1)Oc1ccccc1` [drawing 77]: less than 4.30.
Take `CC(C)C(=O)OCC1=CC[C@H](n2ccc(N)nc2=O)O1` [Compound 39, 3′,4′-Didehydro-2′,3′-dideoxy-5′-O-isobutyroylcytidine]: the “activity against HHV-6B” value in the test on HHV-6B (Z29; MOLT-3) was “active”. Also, the figures for the pEC50 in the test with HHV-6B (Z29; MOLT-3) (Primary) and in the test on HHV-6B (Z29; MOLT-3) (Secondary) were 5.26 and 4.78, respectively. In the test with EBV (Akata/Akata), the “activity against EBV” value is given as “activity comparable to their 2′-hydroxylated analogues”.
As for `CC(C)(C)C(=O)SCCOP(=O)(OCCSC(=O)C(C)(C)C)OCC1=C[C@@H](O)[C@H](n2ccc(NO)nc2=O)O1`, in the test on EBV (Akata/Akata) (setting [3]), the pEC50 was 4.78.
For the compound `CCCCCC(=O)OCC1=C[C@@H](O)[C@H](n2ccc(N)nc2=O)O1` [drawing 75], the pEC50 in the test on EBV (Akata/Akata) (setting [2]) is less than 4.30.
Still for that read-out and setting: with `CC(C)C(=O)OCC1=CC[C@H](n2ccc(N)nc2=O)O1` [drawing 73, 3′,4′-Didehydro-2′,3′-dideoxy-5′-O-isobutyroylcytidine] the figure was 5.20; with `CC(C)(C)C(=O)OCOP(=O)(OCOC(=O)C(C)(C)C)OCC1=C[C@@H](O)[C@H](n2ccc(N)nc2=O)O1` [drawing 76], less than 4.30.
Regarding `CCCCCC(=O)OCC1=C[C@@H](O)[C@H](n2ccc(N)nc2=O)O1` [Compound 27], the “activity against EBV” value in the test on EBV (Akata/Akata) was “inactive”.
Regarding `CC(C)[C@H](N)C(=O)OCC1=C[C@@H](O)[C@H](n2ccc(N)nc2=O)O1` [Compound 30, 3′,4′-Didehydro-3′-deoxy-5′-O-L-valinoylcytidine], in the test with EBV (Akata/Akata), the “activity against EBV” value is reported as “comparably active”.
As to `CC(C)(C)C(=O)OCC1=C[C@@H](O)[C@H](n2ccc(N)nc2=O)O1` [Compound 25], in the test on EBV (Akata/Akata), the “activity against EBV” value is recorded as “comparably active”.
Regarding `Nc1ccn([C@H]2CC=C(CO)O2)c(=O)n1` [Compound A-30, 3′,4′-Didehydro-2′,3′-dideoxycytidine], in the test on EBV (Akata/Akata), the “activity against EBV” value is recorded as “activity comparable to their 2′-hydroxylated analogues”.
With `CC(C)C(=O)OCC1=C[C@@H](O)[C@H](n2ccc(N)nc2=O)O1` [drawing 64, 3′-Deoxy-3′,4′-didehydro-5′-O-isobutyroyl-cytidine], in the test with EBV (Akata/Akata) (setting [1]), the pEC50 was 4.79.
Regarding `CC(C)C(=O)OCC1=CC[C@H](n2ccc(N)nc2=O)O1` [drawing 74, 3′,4′-Didehydro-2′,3′-dideoxy-5′-O-isobutyroylcytidine], the pEC50 in the test with EBV (Akata/Akata) (setting [1]) is 5.15.
As for `CC(C)[C@H](N)C(=O)OCC1=C[C@@H](O)[C@H](n2ccc(N)nc2=O)O1` [drawing 70], the pEC50 in the test with EBV (Akata/Akata) (setting [1]) was 4.73.
Consider `CC(C)(C)C(=O)OCOP(=O)(OCOC(=O)C(C)(C)C)OCC1=C[C@@H](O)[C@H](n2ccc(N)nc2=O)O1` [Compound 35, 3′,4′-Didehydro-3′-deoxycytidine-5′-bis(pivaloyloxymethyl)phosphate], for which the “activity against EBV” value with EBV (Akata/Akata) is “inactive”.
Take `CC(=O)OCC1=C[C@@H](O)[C@H](n2ccc(N)nc2=O)O1` [drawing 68]: the pEC50 with EBV (Akata/Akata) (setting [3]) is 5.10.
